# Assays:
# HeLa [1] = assay: Hoechst 33342 nuclear staining (Table 3); assay type: cell-based, human; parameters: key: 0 relating to no activity; 1 relating to weak activity comprising less than 50% of the cells; score 2 relating to strong activity comprising more than 50% of the cells
# Method: (§1) This assay is performed in 96 well tissue culture plates. Appropriate number of cells (adherent cells: 3 - 5*10^3, suspension cells: 8 - 10*10^3) are being seeded out in 80 µl complete medium. Adherent cells are incubated for 24 h for proper spreading out before addition of test compounds while suspension cells are immediately treated with test compounds after seeding out. The test compounds are added in 20 µl complete medium containing max 5% DMSO. The final compound concentrations in the assays are 10 µM, 3 µM,1 µM and 0.3 µM, respectively. After 24 h or 48 h incubation at culture conditions, 10 µl medium containing Hoechst 33342 dye (Sigma B-2261) at 2-5 µg/ml are added to each well. The assay plates are then further incubated for 30 minutes and subsequently analyzed with a standard inverted fluorescence microscope. The readout allows the determination of the fraction of apoptotic nuclei as well as other morphological criteria specific for apoptosis as a function of the treatment. The following scores are used: 0 relating to no activity, 1 relating to weak activity comprising less than 50% of the cells and score 2 relating to strong activity comprising more than 50% of the cells.
# Jurkat [2] = assay: Hoechst 33342 nuclear staining (Table 3); assay type: cell-based, human; parameters: key: 0 relating to no activity; 1 relating to weak activity comprising less than 50% of the cells; score 2 relating to strong activity comprising more than 50% of the cells
# Method: as §1
# K562 [3] = assay: Hoechst 33342 nuclear staining (Table 3); assay type: cell-based, human; parameters: key: 0 relating to no activity; 1 relating to weak activity comprising less than 50% of the cells; score 2 relating to strong activity comprising more than 50% of the cells
# Method: as §1
# KB = assay: Hoechst 33342 nuclear staining (Table 3); assay type: cell-based, human; parameters: key: 0 relating to no activity; 1 relating to weak activity comprising less than 50% of the cells; score 2 relating to strong activity comprising more than 50% of the cells
# Method: as §1
# Ramos [4] = assay: Hoechst 33342 nuclear staining (Table 3); assay type: cell-based, human; parameters: key: 0 relating to no activity; 1 relating to weak activity comprising less than 50% of the cells; score 2 relating to strong activity comprising more than 50% of the cells
# Method: as §1
# HeLa [5] = assay: MTS proliferation assay; assay type: cell-based; conditions: Homo sapiens, 72 h incubation
# Method: (§2) The assay is performed in 96 well tissue culture plates. The cells (range : 1.5*10^3-10^4) are seeded out in 80 µl complete medium 24 h prior to compound treatment. The test compounds are added in 20 µl complete medium containing max 5% DMSO. The final compound concentrations in the assays are 10 µM, 3 µM,1 µM and 0.3 µM, respectively. The assay plates are incubated for 72 h at culture conditions. The MTS reagent is prepared according to the manufacturer's protocol (Promega G1111 ). 20 µl MTS reagent are added to each well, the assay plates are quickly spun and incubated for another 3 h at culture conditions. Subsequently, the plates are shortly shaked and absorption measured with a microplate-reader at 492 nm.
# Jurkat [6] = assay: MTS proliferation assay; assay type: cell-based; conditions: Homo sapiens, 72 h incubation
# Method: as §2
# K562 [7] = assay: MTS proliferation assay; assay type: cell-based; conditions: Homo sapiens, K562, 72 h incubation
# Method: as §2
# HeLa [8] = assay: AnnexinV/7-AAD staining; assay type: cell-based, human; conditions: 10 µM, 24 h treatment
# Method: (§3) Adherent cells (1 - 2*10^5) are 24 h prior to compound treatment seeded into 24 well tissue culture plates. Suspension cells are pipetted into P-tubes immediately before treatment. Test compounds are added leading to a final concentrations of 10 µM. After 24 h treatment cells are harvested (in case of adherent cells by trypsinization) and transferred to FACS tubes (BD Biosciences). After centrifugation and removal of the supernatant, 100 µl complete medium containing AnnexinV-GST (10 µg) is added, mixed and incubated at 4°C for 30 minutes. Subsequently, the cells are washed once with medium and incubated with 100 µl anti-GST Alexa 488 (Molecular Probes A-11131) in medium diluted 1:500 for 30 minutes at 4°C. Then, cells are washed once and stained with 1 µg/ml 7-aminoactinomycin D (7-AAD) (Molecular Probes A-1310) in 250 µl medium and analyzed on the FACSCalibur™. AnnexinV is measured in FL1 whereas 7-AAD is measured in FL3. In Table 5 the percentage of positively stained cells after treatment with the respective compounds are indicated. The following scores are used: Score 0 relates to less than 10%, score 1 relates to more than 10% but less than 50% and score 2 relates to more than 50% positivity.
# Jurkat [9] = assay: AnnexinV/7-AAD staining; assay type: cell-based, human; conditions: 10 µM, 24 h treatment
# Method: as §3
# Ramos [10] = assay: AnnexinV/7-AAD staining; assay type: cell-based, human; conditions: 10 µM, 24 h treatment
# Method: as §3
# A20 = assay: AnnexinV/7-AAD staining; assay type: cell-based, mouse; conditions: A20, 10 µM, 24 h treatment
# Method: as §3
smiles,measurement,setting,value
"CC1(C)Cc2ccccc2-c2c(C(=O)C(F)(F)F)c3nc4ccccc4nc3n21 [No. 4, 1-(6,6-Dimethyl-5,6-dihydro-6a,7,12-triaza-dibenzo[a,h]fluoren-13-yl)-2,2,2-trifluoro-ethanone]",Hoechst 33342 nuclear staining,"HeLa [1]; 24h, conc 0.3 (µM)",0
same,Hoechst 33342 nuclear staining,"HeLa [1]; 24h, conc 1 (µM)",0
same,Hoechst 33342 nuclear staining,"HeLa [1]; 24h, conc 3 (µM)",0
same,Hoechst 33342 nuclear staining,"HeLa [1]; 24h, conc 10 (µM)",2 (score 2 relating to strong activity comprising more than 50% of the cells)
same,Hoechst 33342 nuclear staining,"HeLa [1]; 48h, conc 0.3 (µM)",0
same,Hoechst 33342 nuclear staining,"HeLa [1]; 48h, conc 1 (µM)",0
same,Hoechst 33342 nuclear staining,"HeLa [1]; 48h, conc 3 (µM)",2 (score 2 relating to strong activity comprising more than 50% of the cells)
same,Hoechst 33342 nuclear staining,"HeLa [1]; 48h, conc 10 (µM)",2 (score 2 relating to strong activity comprising more than 50% of the cells)
same,Hoechst 33342 nuclear staining,"Jurkat [2]; 24h, conc 0.3 (µM)",0
same,Hoechst 33342 nuclear staining,"Jurkat [2]; 24h, conc 1 (µM)",0
same,Hoechst 33342 nuclear staining,"Jurkat [2]; 24h, conc 3 (µM)",2 (score 2 relating to strong activity comprising more than 50% of the cells)
same,Hoechst 33342 nuclear staining,"Jurkat [2]; 24h, conc 10 (µM)",2 (score 2 relating to strong activity comprising more than 50% of the cells)
same,Hoechst 33342 nuclear staining,"Jurkat [2]; 48h, conc 0.3 (µM)",0
same,Hoechst 33342 nuclear staining,"Jurkat [2]; 48h, conc 1 (µM)",2 (score 2 relating to strong activity comprising more than 50% of the cells)
same,Hoechst 33342 nuclear staining,"Jurkat [2]; 48h, conc 3 (µM)",2 (score 2 relating to strong activity comprising more than 50% of the cells)
same,Hoechst 33342 nuclear staining,"Jurkat [2]; 48h, conc 10 (µM)",2 (score 2 relating to strong activity comprising more than 50% of the cells)
same,Hoechst 33342 nuclear staining,"K562 [3]; K562, 24h, conc 0.3 (µM)",0
same,Hoechst 33342 nuclear staining,"K562 [3]; K562, 24h, conc 1 (µM)",1 (1 relating to weak activity comprising less than 50% of the cells)
same,Hoechst 33342 nuclear staining,"K562 [3]; K562, 24h, conc 3 (µM)",2 (score 2 relating to strong activity comprising more than 50% of the cells)
same,Hoechst 33342 nuclear staining,"K562 [3]; K562, 24h, conc 10 (µM)",2 (score 2 relating to strong activity comprising more than 50% of the cells)
same,Hoechst 33342 nuclear staining,"K562 [3]; K562, 48h, conc 0.3 (µM)",0
same,Hoechst 33342 nuclear staining,"K562 [3]; K562, 48h, conc 1 (µM)",2 (score 2 relating to strong activity comprising more than 50% of the cells)
same,Hoechst 33342 nuclear staining,"K562 [3]; K562, 48h, conc 3 (µM)",2 (score 2 relating to strong activity comprising more than 50% of the cells)
same,Hoechst 33342 nuclear staining,"K562 [3]; K562, 48h, conc 10 (µM)",2 (score 2 relating to strong activity comprising more than 50% of the cells)
same,Hoechst 33342 nuclear staining,"KB; 24h, conc 0.3 (µM)",0
same,Hoechst 33342 nuclear staining,"KB; 24h, conc 1 (µM)",0
same,Hoechst 33342 nuclear staining,"KB; 24h, conc 3 (µM)",0
same,Hoechst 33342 nuclear staining,"KB; 24h, conc 10 (µM)",2 (score 2 relating to strong activity comprising more than 50% of the cells)
same,Hoechst 33342 nuclear staining,"KB; 48h, conc 0.3 (µM)",0
same,Hoechst 33342 nuclear staining,"KB; 48h, conc 1 (µM)",0
same,Hoechst 33342 nuclear staining,"KB; 48h, conc 3 (µM)",2 (score 2 relating to strong activity comprising more than 50% of the cells)
same,Hoechst 33342 nuclear staining,"KB; 48h, conc 10 (µM)",2 (score 2 relating to strong activity comprising more than 50% of the cells)
same,Hoechst 33342 nuclear staining,"Ramos [4]; 24h, conc 0.3 (µM)",1 (1 relating to weak activity comprising less than 50% of the cells)
same,Hoechst 33342 nuclear staining,"Ramos [4]; 24h, conc 1 (µM)",2 (score 2 relating to strong activity comprising more than 50% of the cells)
same,Hoechst 33342 nuclear staining,"Ramos [4]; 24h, conc 3 (µM)",2 (score 2 relating to strong activity comprising more than 50% of the cells)
same,Hoechst 33342 nuclear staining,"Ramos [4]; 24h, conc 10 (µM)",2 (score 2 relating to strong activity comprising more than 50% of the cells)
same,Hoechst 33342 nuclear staining,"Ramos [4]; 48h, conc 0.3 (µM)",1 (1 relating to weak activity comprising less than 50% of the cells)
same,Hoechst 33342 nuclear staining,"Ramos [4]; 48h, conc 1 (µM)",2 (score 2 relating to strong activity comprising more than 50% of the cells)
same,Hoechst 33342 nuclear staining,"Ramos [4]; 48h, conc 3 (µM)",2 (score 2 relating to strong activity comprising more than 50% of the cells)
same,Hoechst 33342 nuclear staining,"Ramos [4]; 48h, conc 10 (µM)",2 (score 2 relating to strong activity comprising more than 50% of the cells)
same,IC50,HeLa [5],> 10 µM
same,IC50,Jurkat [6],> 10 µM
same,IC50,K562 [7],> 10 µM
same,percentage of positively stained cells (AnnexinV/7-AAD staining),HeLa [8],1 (score 1 relates to more than 10% but less than 50%)
same,percentage of positively stained cells (AnnexinV/7-AAD staining),Jurkat [9],2 (score 2 relates to more than 50% positivity)
same,percentage of positively stained cells (AnnexinV/7-AAD staining),Ramos [10],2 (score 2 relates to more than 50% positivity)
same,percentage of positively stained cells (AnnexinV/7-AAD staining),A20,1 (score 1 relates to more than 10% but less than 50%)
